Experimental findings from patent US8772022B2, “Hepatitis C virus expressing reporter tagged NS5A protein” (Hvidovre Hospital, priority 2008, dated 2014) are described below.

The subject of the series is Huh7.5 cells. The series is described as follows: Supernatant infectivity titer, focus forming unit (FFU) method on Huh7.5 cells. Format: cell-based, human. On the procedure:
To determine the efficiency of the developed system, HCV RNA titers are determined in IU/ml (international units/ml) with Taq-Man Real-Time-PCR and infectious titers are determined with a focus-forming units (FFU) method: in this method, infectivity titers are determined by infection of cell culture replicates with serial dilutions of virus containing supernatants and, following immuno-stainings for HCV antigens, counting of HCV-antigen positive cell foci. Alternatively the infectious titers are determined as 50% tissue culture infectious dose.
Viral spread was monitored by HCV Core and NS5A immunostainings with mouse anti-HCV core protein monoclonal antibody (B2) (Anogen, Yes Biotech Laboratories) or anti-NS5A, 9E10, respectively, as described in the following section. For reporter viruses tagged with fluorescent reporter gene, viral spread was also monitored by direct visualization of the reporter gene by fluorescence microscopy. For reporter viruses tagged with hRLuc reporter gene, viral spread was also monitored by luminescence-based assay as described below. Supernatant infectivity titers were determined as 50% tissue culture infectious dose (TCID50)/mL or as focus forming units (FFU)/mL, as described in the following section. Supernatant HCV RNA titers were measured by a 5′ UTR based Real Time RT-PCR as described below.
Viral infectivity titers were determined by the tissue culture infectious dose 50 (TCID50) or focus forming unit method. 6×10^3/well naive Huh7.5 cells were plated out in a poly-D-lysine coated 96-well plate (Nunc) the day before infection. Cells were then incubated with 10-fold dilutions of cell culture supernatants. For TCID50 determinations, 6 replicates per dilution were incubated for 2-3 days. For FFU determinations, wells were incubated for 48 rs. After incubation, cells were permeabilized for 5′ with cold methanol. After washing 1× with PBS and 1× with PBS/Tween-20, blocking was carried out for 20′ with sterile filtered 1% BSA/0.2% skim milk in PBS followed by a 5′ blocking of endogenous peroxidase activity using 3% H2O2. Cells were washed as above and incubated with a 1:200 dilution of 1° Ab α-NS5A (9E10) in PBS/0.1% tween-20 over night at 4° C. After washing, a 1:300 dilution of 2° Ab HRP-goat anti-mouse IgG (H+L) (Amersham Biosciences) in PBS/0.1% tween-20 was added and incubated for 30′ at room temperature. Staining was developed using DAB substrate kit (DAKO) for 30′ after washing. In TCID50 determinations, wells were scored positive if one or more cells were infected, and the TCID50 was calculated according to the Reed and Muench method. TCID50 values are derived from single or multiple determinations as indicated. FFU determinations are based on counts of wells with 5-100 FFU and three independent virus dilutions with one replicate each. Counts were obtained by counting FFU by eye or by using automated counting on an ImmunoSpot Series 5 UV Analyzer (CTL Europe GmbH) with customized software kindly provided by CTL. From FFU counts in experimental wells, the mean of spot counts of at least 6 negative control wells was subtracted (˜usually 3 to 15 spots).

Setting [1] is: day 5 post transfection, Huh7.5.
[2] abbreviates: day 8 post transfection, Huh7.5.

Take “H77^5′UTR/J4^C-NS2/JFH1T2997C, A4828T: 1b Core-NS2 recombinant with heterotypic 1a (H77) 5′UTR”: the “Infectivity titer of transfection supernatant Log10 (FFU/mL)” value by setting is: under setting [1], 3.32 Log10 (FFU/mL); under setting [2], 2.49 Log10 (FFU/mL).
For “J4^5′UTR-NS2/JFH1T2997C, A4828T: 1b Core-NS2 recombinant with homotypic 1b (J4) 5′UTR”, the “Infectivity titer of transfection supernatant Log10 (FFU/mL)” value runs as follows: under setting [1], 2.47 Log10 (FFU/mL); under setting [2], 2.07 Log10 (FFU/mL).
Regarding “H77^5′UTR/J8^C-NS2/JFH1: 2b Core-NS2 recombinant with heterotypic 1a (H77) 5′UTR”, the “Infectivity titer of transfection supernatant Log10 (FFU/mL)” value runs as follows: under setting [1], 3.41 Log10 (FFU/mL); under setting [2], 2.58 Log10 (FFU/mL).
Consider “S52^5′UTR/J4^C-NS2/JFH1T2995C, A4826T: 1b Core-NS2 recombinant with heterotypic 3a (S52) 5′UTR”, for which the “Infectivity titer of transfection supernatant Log10 (FFU/mL)” value runs as follows: under setting [1], 2.03 Log10 (FFU/mL); under setting [2], 1.67 Log10 (FFU/mL).
On to “H77^5′UTR/S52^C-NS2/JFH1T2719G, A4551C: 3a Core-NS2 recombinant with heterotypic 1a (H77) 5′UTR”, for which the “Infectivity titer of transfection supernatant Log10 (FFU/mL)” value is 4.07 Log10 (FFU/mL) under setting [1] and 4.22 Log10 (FFU/mL) under setting [2].
The corresponding values for “S52^5′UTR-NS2/JFH1T2717G, A4549C: 3a Core-NS2 recombinant with homotypic 3a (S52) 5′UTR” are 4.57 Log10 (FFU/mL) and 4.53 Log10 (FFU/mL).
With “S52^5′UTR/J8^C-NS2/JFH1: 2b Core-NS2 recombinant with heterotypic 3a (S52) 5′UTR”, the “Infectivity titer of transfection supernatant Log10 (FFU/mL)” value under setting [1] was 3.08 Log10 (FFU/mL) and the “Infectivity titer of transfection supernatant Log10 (FFU/mL)” value under setting [2] was 2.10 Log10 (FFU/mL).
As to “S52^5′UTR/HK6a^C-NS2/JFH1T1388C, A1589C: 6a Core-NS2 recombinant with heterotypic 3a (S52) 5′UTR”, the “Infectivity titer of transfection supernatant Log10 (FFU/mL)” value reads like this: under setting [1], 3.29 Log10 (FFU/mL); under setting [2], 3.15 Log10 (FFU/mL).
The corresponding values for “J8^5′UTR-NS2/JFH1: 2b Core-NS2 recombinant with homotypic 2b (J8) 5′UTR” are 3.94 Log10 (FFU/mL) and 3.75 Log10 (FFU/mL).
For “H77^5′UTR/HK6a^C-NS2/JFH1T1390C, A1591C: 6a Core-NS2 recombinant with heterotypic 1a (H77) 5′UTR”, the “Infectivity titer of transfection supernatant Log10 (FFU/mL)” value is 3.60 Log10 (FFU/mL) under setting [1] and 3.23 Log10 (FFU/mL) under setting [2].
For the substance “HK6a^5′UTR-NS2/JFH1T1391C, A1592C: 6a Core-NS2 recombinant with homotypic 6a (HK6a) 5′UTR”, the “Infectivity titer of transfection supernatant Log10 (FFU/mL)” value runs as follows: (day 5 post transfection, * another, independent transfection experiment) 4.57 Log10 (FFU/mL); (day 7 post transfection, * another, independent transfection experiment) 4.39 Log10 (FFU/mL).
